Reference: paper PMC12605013, “SAG1.3-derived Frizzled-targeting small-molecule compounds” (The Journal of Biological Chemistry, 2025)

What was measured:
[1] = molecular target: T1, Nluc-FZD5 (Homo sapiens, UniProt Q13467); test: BRET-based BODIPY-cyclopamine competition binding at Nluc-FZD5; details: BODIPY-cyclopamine 200 nM; ΔFZD1-10 HEK293T cells; read-out: pIC50 (11) mean ± SEM, Nluc-FZD5 (converted)
T1 construct: expressed in transfected cells; host or cells: ΔFZD1–10 HEK293T cells
Description: (§1) After 24 h, cells were washed once with Hanks' balanced salt solution (HBSS), followed by the addition of 80 μl of HBSS. Next, 10 μl of the competitive ligand, that is, the tested SAG1.3 derivative (either in different concentrations for the concentration–response curves or at a final concentration of 10 μM for the first screens) and 10 μl of the fluorescent tracer BODIPY–cyclopamine (final concentration: 300 nM for the first screens, 200 nM for the concentration–response experiments) were added. All serial dilutions were prepared in HBSS. The cells were incubated for 90 min at 37 °C without additional CO2, after which 10 μl of luciferase substrate diluted in HBSS (furimazine; Promega, N1572, final dilution: 1:1000 for first screening) and coelenterazine h (Biosynth; final concentration: 5 μM for concentration–response experiments) were added to the cells. Following a 10 min incubation period in the dark, the measurement was started on a BMG Labtech ClarioStar or TECAN Spark multimode microplate reader, prewarmed to 37 °C. Nluc bioluminescence was detected between 460 and 490 nm (ClarioStar) or 460 and 500 nm (TECAN Spark). The emission of the fluorescent tracer was detected between 520 and 550 nm (ClarioStar) or between 520 and 560 nm (TECAN Spark). […]

[2] = system: HPAF-II cells; test: Cell viability (AlamarBlue) of HPAF-II cells; type: cell-based, human; details: one-week treatment; 10 µM
Description: HPAF-II cells and PANC-1 cells were seeded in DMEM at a density of 1000 cells per well into a black opaque 96-well plate (Greiner BioOne). After 1 day, the medium was exchanged with complete DMEM containing either compound 11, the porcupine inhibitor C59, or DMSO (vehicle control). After 3 days of incubation (37 °C, 5% CO2), the medium was exchanged once again with DMEM containing the same concentration of ligands or DMSO (vehicle control). Three days after (equal to 7 days after seeding), the medium was removed and 90 μl of fresh DMEM (without any ligands) were added. Last, 10 μl of AlamarBlue HS reagent (Thermo Fisher Scientific; catalog no.: A50100) were added to each well, and the cells were incubated for 4 h at 37 °C inside the incubator (5% CO2). After the incubation step, fluorescence was read using a TECAN Spark multimode microplate reader (excitation: 535 ± 25 nm, emission: 595 ± 35 nm).
For each cell viability experiment, the fluorescence measured in ligand-treated wells was normalized to the average fluorescence from wells treated with vehicle control (DMSO).

[3] = molecular target: T2, ΔCRD-Nluc-FZD6 (Homo sapiens, UniProt O60353); test: BRET-based BODIPY-cyclopamine competition binding at FZD6 lacking the CRD; details: BODIPY-cyclopamine 200 nM; ΔFZD1-10 HEK293T cells; read-out: pIC50 (11) mean ± SEM, ΔCRD-Nluc-FZD6 (converted)
T2 construct: amplifying ΔCRD-FZD6 (starting from D156) using SNAP-FZD6 as a template; expressed in transfected cells; host or cells: ΔFZD1–10 HEK293T cells
T2 sequence (O60353 156-706): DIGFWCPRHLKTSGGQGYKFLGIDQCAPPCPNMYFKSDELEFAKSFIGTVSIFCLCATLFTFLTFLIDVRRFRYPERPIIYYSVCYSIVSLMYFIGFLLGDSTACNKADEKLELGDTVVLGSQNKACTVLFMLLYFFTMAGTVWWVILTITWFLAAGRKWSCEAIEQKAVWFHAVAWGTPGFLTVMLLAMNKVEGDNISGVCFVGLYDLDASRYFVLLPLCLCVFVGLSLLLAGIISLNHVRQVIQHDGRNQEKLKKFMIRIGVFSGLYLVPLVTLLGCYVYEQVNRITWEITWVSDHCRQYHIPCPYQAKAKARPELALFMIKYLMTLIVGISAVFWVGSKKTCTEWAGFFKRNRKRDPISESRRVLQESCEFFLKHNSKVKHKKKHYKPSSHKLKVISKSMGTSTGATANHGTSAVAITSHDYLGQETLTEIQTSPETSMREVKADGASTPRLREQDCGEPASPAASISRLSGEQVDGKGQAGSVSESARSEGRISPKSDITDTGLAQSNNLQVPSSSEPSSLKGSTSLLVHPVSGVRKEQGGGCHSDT
Description: as §1

T1 sequence (Q13467 27-585): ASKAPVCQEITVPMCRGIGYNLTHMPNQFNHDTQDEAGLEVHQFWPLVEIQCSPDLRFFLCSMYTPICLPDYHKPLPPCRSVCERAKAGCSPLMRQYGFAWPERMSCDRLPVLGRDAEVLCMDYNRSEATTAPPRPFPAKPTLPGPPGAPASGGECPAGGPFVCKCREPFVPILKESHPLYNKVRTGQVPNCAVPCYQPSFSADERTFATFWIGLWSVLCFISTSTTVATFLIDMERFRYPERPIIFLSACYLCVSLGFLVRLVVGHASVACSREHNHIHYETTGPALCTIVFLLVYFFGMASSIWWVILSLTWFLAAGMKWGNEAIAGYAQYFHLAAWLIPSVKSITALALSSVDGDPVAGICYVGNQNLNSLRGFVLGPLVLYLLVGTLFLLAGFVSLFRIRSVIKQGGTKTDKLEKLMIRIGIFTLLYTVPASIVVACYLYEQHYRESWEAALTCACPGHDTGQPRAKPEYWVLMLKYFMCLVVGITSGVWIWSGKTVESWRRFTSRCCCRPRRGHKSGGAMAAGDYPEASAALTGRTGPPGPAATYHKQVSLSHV

With `CC(=O)Nc1cccc(C(=O)NC2CCC(N(Cc3cccc(-c4ccncc4)c3)C(=O)c3sc4ccccc4c3Cl)CC2)c1` (stereo not drawn) [compound 11, N-((1r,4r)-4-(3-Acetamidobenzamido)cyclohexyl)-3-chloro-N-(3-(pyridin-4-yl)benzyl)benzo[b]thiophene-2-carboxamide] the IC50 [1] was 759 nM, the “Cell viability of RNF43-negative HPAF-II cells” value [2] was “strongly reduced” and the IC50 [3] was 851 nM.
